How the values were obtained:
DLD-1 = experiment: Proliferation panel assay: DLD-1; type: cell-based; details: Homo sapiens, 120 h; DLD-1 (Colon); 5 days, Cell Titer Glo; read-out: Cellular Proliferation EC50
MDAMB453 = experiment: Proliferation panel assay: MDAMB453; type: cell-based; details: Homo sapiens, MDA-MB-453, 120 h; MDAMB453 (Breast); 5 days, Cell Titer Glo; read-out: Cellular Proliferation EC50
FaDu = experiment: Proliferation panel assay: FaDu; type: cell-based; details: Homo sapiens, 120 h; FaDu (Head & Neck); 5 days, Cell Titer Glo; read-out: Cellular Proliferation EC50
BxPC3FP5 = experiment: Proliferation panel assay: BxPC3FP5; type: cell-based; details: 120 h; BxPC3FP5 (Pancreas); 5 days, Cell Titer Glo; read-out: Cellular Proliferation EC50
Ly18 = experiment: Proliferation panel assay: Ly18; type: cell-based; details: 120 h; Ly18 (NHL); 5 days, Cell Titer Glo; read-out: Cellular Proliferation EC50
SKM1 = experiment: Proliferation panel assay: SKM1; type: cell-based; details: Homo sapiens, SKM-1, 120 h; SKM1 (AML); 5 days, Cell Titer Glo; read-out: Cellular Proliferation EC50
H1975 = experiment: Proliferation panel assay: H1975; type: cell-based; details: Homo sapiens, NCI-H1975, 120 h; H1975 (NSCLC); 5 days, Cell Titer Glo; read-out: Cellular Proliferation EC50
[1] = target: T1, second (BD2: amino acids E352-E168) bromodomain of BRD4 (Homo sapiens, UniProt O60885); experiment: TR-FRET bromodomain binding assay, BRD4 BD2; details: TR-FRET assay protocol (A-G, compound concentration range); Ki calculated from IC50, probe Kd and probe concentration; read-out: TR-FRET Binding Ki: BRD4 (BDII_E352-M457)
T1 construct: protocol
Outline: (§1)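 His-tagged BRD4 BD1 (K57-E168) or BD2 ([…]) displacing an Alexa647-labelled BET-inhibitor probe in 20 mM sodium phosphate pH 6.0, 50 mM NaCl, 1 mM EDTA, 0.01% Triton X-100, 1 mM DTT.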

D54MG = experiment: Proliferation panel assay: D54MG; type: cell-based; details: 120 h; D54MG (Glioblastoma); 5 days, Cell Titer Glo; read-out: Cellular Proliferation EC50
H460 = experiment: Proliferation panel assay: H460; type: cell-based; details: Homo sapiens, NCI-H460, 120 h; H460 (NSCLC); 5 days, Cell Titer Glo; read-out: Cellular Proliferation EC50
NCI-H929 = experiment: Proliferation panel assay: NCI-H929; type: cell-based; details: Homo sapiens, 120 h; NCI-H929 (Multiple Myeloma); 5 days, Cell Titer Glo; read-out: Cellular Proliferation EC50
SK-LMS-1 = experiment: Proliferation panel assay: SK-LMS-1; type: cell-based; details: Homo sapiens, 120 h; SK-LMS-1 (Sarcoma); 5 days, Cell Titer Glo; read-out: Cellular Proliferation EC50
[2] = target: T2, first (BD1: amino acids K57-E168) bromodomain of BRD4 (Homo sapiens, UniProt O60885); experiment: TR-FRET bromodomain binding assay, BRD4 BD1; details: TR-FRET assay protocol (A-G, compound concentration range); Ki calculated from IC50, probe Kd and probe concentration; read-out: TR-FRET Binding Ki: BRD4 (BDI_K57-E168)
T2 construct: His-tagged first (BD1: amino acids K57-E168)
Outline: as §1

GEO = experiment: Proliferation panel assay: GEO; type: cell-based; details: 120 h; GEO (Colon); 5 days, Cell Titer Glo; read-out: Cellular Proliferation EC50
EJ-1 = experiment: Proliferation panel assay: EJ-1; type: cell-based; details: EJ1, 120 h; EJ-1 (Bladder); 5 days, Cell Titer Glo; read-out: Cellular Proliferation EC50
[3] = system: breast cancer cell line MX-1; experiment: MX-1 cell line proliferation assay (3-day); type: cell-based; details: Homo sapiens, MX1; MX-1 cells, 72 h incubation, Cell Titer Glo; read-out: Cellular proliferation: EC50
Outline: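 MX-1 cells in RPMI/10% FBS, plated 5000/well overnight, then exposed to compound at final 3 to 0.0001 μM (3-fold series) for 3 days at 37° C. Cell Titer Glo luminescence normalized to DMSO-treated cells; EC50 from sigmoidal curve fit.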

H1299 = experiment: Proliferation panel assay: H1299; type: cell-based; details: Homo sapiens, NCI-H1299, 120 h; H1299 (NSCLC); 5 days, Cell Titer Glo; read-out: Cellular Proliferation EC50
A-375 = experiment: Proliferation panel assay: A-375; type: cell-based; details: Homo sapiens, 120 h; A-375 (Melanoma); 5 days, Cell Titer Glo; read-out: Cellular Proliferation EC50

EC50 (DLD-1)	EC50 (MDAMB453)	EC50 (BxPC3FP5)	EC50 (SKM1)	EC50 (H1975)	Ki [1]	EC50 (H460)	EC50 (NCI-H929)	EC50 (SK-LMS-1)	Ki [2]	EC50 [3]	EC50 (H1299)	EC50 (A-375)	SMILES	EC50 (FaDu)	EC50 (Ly18)	EC50 (D54MG)	EC50 (GEO)	EC50 (EJ-1)
850 nM	320 nM	230 nM	116 nM	380 nM	113 nM	110 nM	109 nM	448 nM	48.2 nM	208 nM	750 nM	430 nM	Cn1cc(-c2cc(NS(C)(=O)=O)ccc2Oc2ccccc2)ccc1=O [Example 224, N-[3-(1-methyl-6-oxo-1,6-dihydropyridin-3-yl)-4-phenoxyphenyl]methanesulfonamide]	280 nM	520 nM	423 nM	550 nM	1590 nM
620 nM	340 nM	230 nM	135 nM	470 nM	66.4 nM	310 nM	98 nM	348 nM	25.9 nM	387 nM	740 nM	498 nM	Cc1cc(-c2cc(NS(C)(=O)=O)ccc2Oc2ccccc2)c[nH]c1=O [Example 261, N-[3-(5-methyl-6-oxo-1,6-dihydropyridin-3-yl)-4-phenoxyphenyl]methanesulfonamide]	270 nM	510 nM	338 nM	670 nM	1160 nM
